In brackets after ≈: the same amount, converted by molar mass. Where two headings read alike, the source gives them in different places.
Legend:
[1] = tested on: E. coli ATCC 25922 (AECO001); assay: MIC, CLSI broth microdilution; type: cell-based; conditions: Escherichia coli
Outline: (§1)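 Test compounds were diluted two-fold at 2× strength in Mueller Hinton Broth, then combined 1:1 with saline-suspended bacteria from an overnight agar colony to reach 5×10^5 CFU/mL. Incubation followed at 35° C. for 20 hours in ambient air, per CLSI reference methods.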

[2] = tested on: P. aeruginosa ATCC 27853 (APAE001); assay: MIC, CLSI broth microdilution; type: cell-based; conditions: for MIC: Pseudomonas aeruginosa
Outline: as §1

[3] = ATCC25922, read-out: MIC AECO001, Table 1, AECO001 is ATCC25922
[4] = ATCC27853, read-out: MIC APAE001, Table 1, APAE001 is ATCC27853
[5] = ATCC25922, Table 2, read-out: MIC E. coli
[6] = Table 1, AECO001 is ATCC25922, read-out: MIC AECO001
[7] = ATCC27853, Table 2, read-out: MIC P. aeruginosa

CN[C@@H]1[C@@H](O)[C@@H](O[C@@H]2[C@@H](O)[C@H](O[C@H]3OC(CNCC4(O)CC(N)C4)=CC[C@H]3N)[C@@H](N)C[C@H]2NC(=O)C(O)C2CNC2)OC[C@]1(C)O (stereo partly shown) [Example 83, 6′-(Methyl-3-amino-1-hydroxy-cyclobutyl)-1-(2-(azetidin-3-yl)-2-hydroxy-acetyl)-sisomicin]
MIC [1, 3]: 1 to 16 µg/mL (≈ 1.52 to 24.3 µM)
MIC [2, 4]: > 16 µg/mL

CN[C@@H]1[C@@H](O)[C@@H](O[C@@H]2[C@@H](O)[C@H](O[C@H]3OC(CN)=CC[C@H]3NCC3CCNC3)[C@@H](N)C[C@H]2NC(=O)[C@@H](O)CCN)OC[C@]1(C)O (stereo partly drawn) [Example 84, 2′-(Methyl-pyrrolidin-3-yl)-1-(4-amino-2(S)-hydroxy-butyryl)-sisomicin]
MIC [1, 3]: < 1 µg/mL
MIC [2, 4]: 1 to 16 µg/mL (≈ 1.58 to 25.3 µM)

CN[C@@H]1[C@@H](O)[C@@H](O[C@@H]2[C@@H](O)[C@H](O[C@H]3OC(CN)=CC[C@H]3NCC3CCCN3)[C@@H](N)C[C@H]2NC(=O)[C@@H](O)CCN)OC[C@]1(C)O (stereo partly drawn) [Example 85, 2′-(Methyl-pyrrolidin-2-yl)-1-(4-amino-2(S)-hydroxy-butyryl)-sisomicin]
MIC [1, 3]: < 1 µg/mL
MIC [2, 4]: 1 to 16 µg/mL (≈ 1.58 to 25.3 µM)

CNCC(=O)N[C@@H]1CC=C(CN)O[C@@H]1O[C@H]1[C@H](O)[C@@H](O[C@H]2OC[C@](C)(O)[C@H](NC)[C@H]2O)[C@H](NC(=O)[C@@H](O)CCN)C[C@@H]1N [Example 86, 2′-(N-Methyl-amino-acetyl)-1-(4-amino-2(S)-hydroxy-butyryl)-sisomicin]
MIC [1, 3]: 1 to 16 µg/mL (≈ 1.61 to 25.8 µM)
MIC [2, 4]: 1 to 16 µg/mL (≈ 1.61 to 25.8 µM)

CN[C@@H]1[C@@H](O)[C@@H](O[C@@H]2[C@@H](O)[C@H](O[C@H]3OC(CN)=CC[C@H]3NC(=O)CN)[C@@H](N)C[C@H]2NC(=O)[C@@H](O)CCN)OC[C@]1(C)O [Example 87, 2′-(2-Amino-acetyl)-1-(4-amino-2(S)-hydroxy-butyryl)-sisomicin]
MIC [1, 3]: 1 to 16 µg/mL (≈ 1.65 to 26.4 µM)
MIC [2, 4]: 1 to 16 µg/mL (≈ 1.65 to 26.4 µM)

CN[C@@H]1[C@@H](O)[C@@H](O[C@@H]2[C@@H](O)[C@H](O[C@H]3OC(CN)=CC[C@H]3NC(=O)C(C)N)[C@@H](N)C[C@H]2NC(=O)[C@@H](O)CCN)OC[C@]1(C)O (stereo partly drawn) [Example 88, 2′-(2-Amino-propionyl)-1-(4-amino-2(S)-hydroxy-butyryl)-sisomicin]
MIC [1, 3]: 1 to 16 µg/mL (≈ 1.61 to 25.8 µM)
MIC [2, 4]: 1 to 16 µg/mL (≈ 1.61 to 25.8 µM)

CN[C@@H]1[C@@H](O)[C@@H](O[C@@H]2[C@@H](O)[C@H](O[C@H]3OC(CN)=CC[C@H]3NC(=O)C(O)CN)[C@@H](N)C[C@H]2NC(=O)[C@@H](O)CCN)OC[C@]1(C)O (stereo partly drawn) [Example 89, 2′-(3-Amino-2-hydroxy-propionyl)-1-(4-amino-2(S)-hydroxy-butyryl)-sisomicin]
MIC [1, 3]: < 1 µg/mL
MIC [2, 4]: 1 to 16 µg/mL (≈ 1.57 to 25.2 µM)

CN[C@@H]1[C@@H](O)[C@@H](O[C@@H]2[C@@H](O)[C@H](O[C@H]3OC(CN)=CC[C@H]3NC(=O)C3CCCN3)[C@@H](N)C[C@H]2NC(=O)[C@@H](O)CCN)OC[C@]1(C)O (stereo partly shown) [Example 90]
MIC [1, 3]: < 1 µg/mL
MIC [2, 4]: 1 to 16 µg/mL (≈ 1.55 to 24.8 µM)

CN[C@@H]1[C@@H](O)[C@@H](O[C@@H]2[C@@H](O)[C@H](O[C@H]3OC(CN)=CC[C@H]3NCCCN)[C@@H](N)C[C@H]2NC(=O)[C@@H](O)CCN)OC[C@]1(C)O [Example 91, 2′-(3-Amino-propyl)-1-(4-amino-2(S)-hydroxy-butyryl)-sisomicin]
MIC [1, 3]: < 1 µg/mL
MIC [2, 4]: < 1 µg/mL

CN[C@@H]1[C@@H](O)[C@@H](O[C@@H]2[C@@H](O)[C@H](O[C@H]3OC(CN)=CC[C@H]3NC(=O)CC3CNCCO3)[C@@H](N)C[C@H]2NC(=O)[C@@H](O)CCN)OC[C@]1(C)O (stereo partly drawn) [Example 92, 2′-(Morpholin-2-yl-acetyl)-1-(4-amino-2(S)-hydroxy-butyryl)-sisomicin]
MIC [1, 3]: < 1 µg/mL
MIC [2, 4]: > 16 µg/mL

CN[C@@H]1[C@@H](O)[C@@H](O[C@@H]2[C@@H](O)[C@H](O[C@H]3OC(CN)=CC[C@H]3NS(=O)(=O)CCN)[C@@H](N)C[C@H]2NC(=O)[C@@H](O)CCN)OC[C@]1(C)O [Example 93, 2′-(2-Amino-ethyl-sulfonamide)-1-(4-amino-2(S)-hydroxy-butyryl)-sisomicin]
MIC [1, 3]: < 1 µg/mL
MIC [2, 4]: 1 to 16 µg/mL (≈ 1.52 to 24.4 µM)

CN[C@@H]1[C@@H](O)[C@@H](O[C@@H]2[C@@H](O)[C@H](O[C@H]3OC(CN)=CC[C@H]3NCC(C)(C)CN(C)C)[C@@H](N)C[C@H]2NC(=O)[C@@H](O)CCN)OC[C@]1(C)O [Example 94, 2′-(N,N-Dimethyl-2,2-dimethyl-3-amino-propyl)-1-(4-amino-2(S)-hydroxy-butyryl)-sisomicin]
MIC [1, 3]: 1 to 16 µg/mL (≈ 1.51 to 24.2 µM)
MIC [2, 4]: > 16 µg/mL

CN[C@@H]1[C@@H](O)[C@@H](O[C@@H]2[C@@H](O)[C@H](O[C@H]3OC(CN)=CC[C@H]3NC[C@H](C)N)[C@@H](N)C[C@H]2NC(=O)[C@@H](O)CCN)OC[C@]1(C)O [Example 95, 2′-(2(S)-Amino-propyl)-1-(4-amino-2(S)-hydroxy-butyryl)-sisomicin]
MIC [1, 3]: < 1 µg/mL
MIC [2, 4]: > 16 µg/mL

CN[C@@H]1[C@@H](O)[C@@H](O[C@@H]2[C@@H](O)[C@H](O[C@H]3OC(CN)=CC[C@H]3NC3CNC3)[C@@H](N)C[C@H]2NC(=O)[C@@H](O)CCN)OC[C@]1(C)O [Example 96, 2′-(Azetidin-3-yl)-1-(4-amino-2(S)-hydroxy-butyryl)-sisomicin]
MIC [1, 5]: < 1 µg/mL
MIC [1, 6]: < 1 µg/mL
MIC [2, 7]: 1 to 16 µg/mL (≈ 1.66 to 26.5 µM)

CN[C@@H]1[C@@H](O)[C@@H](O[C@@H]2[C@@H](O)[C@H](O[C@H]3OC(CN)=CC[C@H]3NCC(N)CO)[C@@H](N)C[C@H]2NC(=O)[C@@H](O)CCN)OC[C@]1(C)O (stereo partly drawn) [Example 97, 2′-(2-Amino-propanol)-1-(4-amino-2(S)-hydroxy-butyryl)-sisomicin]
MIC [1, 3]: < 1 µg/mL
MIC APAE001 ([2]; Table 1, APAE001 is ATCC27853): B (MIC's of greater than 1.0 μg/mL to 16.0 μg/mL = B)

CN[C@@H]1[C@@H](O)[C@@H](O[C@@H]2[C@@H](O)[C@H](O[C@H]3OC(CN)=CC[C@H]3NCCO)[C@@H](N)C[C@H]2NC(=O)[C@@H](O)CCN)OC[C@]1(C)O [Example 98, 2′-(2-Hydroxy-ethyl)-1-(4-amino-2(S)-hydroxy-butyryl)-sisomicin]
MIC [1, 3]: 1 to 16 µg/mL (≈ 1.69 to 27 µM)
MIC [2, 4]: 1 to 16 µg/mL (≈ 1.69 to 27 µM)

CN[C@@H]1[C@@H](O)[C@@H](O[C@@H]2[C@@H](O)[C@H](O[C@H]3OC(CN)=CC[C@H]3NC(=O)C(N)CCCN)[C@@H](N)C[C@H]2NC(=O)[C@@H](O)CCN)OC[C@]1(C)O (stereo partly drawn) [Example 99, 2′-(2,5-Diamino-pentoyl)-1-(4-amino-2(S)-hydroxy-butyryl)-sisomicin]
MIC [1, 3]: 1 to 16 µg/mL (≈ 1.51 to 24.1 µM)
MIC [2, 4]: 1 to 16 µg/mL (≈ 1.51 to 24.1 µM)

CN[C@@H]1[C@@H](O)[C@@H](O[C@@H]2[C@@H](O)[C@H](O[C@H]3OC(CN)=CC[C@H]3NCC(O)CN)[C@@H](N)C[C@H]2NC(=O)[C@@H](O)CCN)OC[C@]1(C)O (stereo partly drawn) [Example 101, 2′-(2-Hydroxy-3-amino-propyl)-1-(4-amino-2(S)-hydroxy-butyryl)-sisomicin]
MIC [1, 3]: < 1 µg/mL
MIC [2, 4]: 1 to 16 µg/mL (≈ 1.61 to 25.7 µM)

CN[C@@H]1[C@@H](O)[C@@H](O[C@@H]2[C@@H](O)[C@H](O[C@H]3OC(CN)=CC[C@H]3NCCCCN)[C@@H](N)C[C@H]2NC(=O)[C@@H](O)CCN)OC[C@]1(C)O [Example 102, 2′-(4-Amino-butyl)-1-(4-amino-2(S)-hydroxy-butyryl)-sisomicin]
MIC [1, 3]: < 1 µg/mL
MIC [2, 4]: 1 to 16 µg/mL (≈ 1.61 to 25.8 µM)

CN[C@@H]1[C@@H](O)[C@@H](O[C@@H]2[C@@H](O)[C@H](O[C@H]3OC(CN)=CC[C@H]3NC(=N)N)[C@@H](N)C[C@H]2NC(=O)[C@@H](O)CCN)OC[C@]1(C)O [Example 103, 2′-Guanidinium-1-(4-amino-2(S)-hydroxy-butyryl)-sisomicin]
MIC [1, 5]: < 1 µg/mL
MIC [1, 6]: < 1 µg/mL
MIC [2, 7]: < 1 µg/mL

CN[C@@H]1[C@@H](O)[C@@H](O[C@@H]2[C@@H](O)[C@H](O[C@H]3OC(CN)=CC[C@H]3NC[C@H]3C[C@H](N)C3)[C@@H](N)C[C@H]2NC(=O)[C@@H](O)CCN)OC[C@]1(C)O [Example 104, 2′-(Methyl-trans-3-amino-cyclobutyl)-1-(4-amino-2(S)-hydroxy-butyryl)-sisomicin]
MIC [1, 3]: < 1 µg/mL
MIC [2, 4]: 1 to 16 µg/mL (≈ 1.58 to 25.3 µM)

CN[C@@H]1[C@@H](O)[C@@H](O[C@@H]2[C@@H](O)[C@H](O[C@H]3OC(CNC(=N)N)=CC[C@H]3NC(=N)N)[C@@H](N)C[C@H]2N)OC[C@]1(C)O [Example 105, 6′,2′-bis-Guanidinium-sisomicin]
MIC [1, 3]: > 16 µg/mL
MIC [2, 4]: > 16 µg/mL

CN[C@@H]1[C@@H](O)[C@@H](O[C@@H]2[C@@H](O)[C@H](O[C@H]3OC(CNCCO)=CC[C@H]3NC(=N)N)[C@@H](N)C[C@H]2N)OC[C@]1(C)O [Example 106, 6′-(2-Hydroxy-ethyl)-2′-guanidinium-sisomicin]
MIC [1, 3]: < 1 µg/mL
MIC [2, 4]: 1 to 16 µg/mL (≈ 1.87 to 30 µM)

CN[C@@H]1[C@@H](O)[C@@H](O[C@@H]2[C@@H](O)[C@H](O[C@H]3OC(CNC[C@H]4C[C@H](N)C4)=CC[C@H]3NC(=N)N)[C@@H](N)C[C@H]2N)OC[C@]1(C)O [Example 107, 6′-(Methyl-trans-3-amino-cyclobutyl)-2′-guanidinium-sisomicin]
MIC [1, 3]: 1 to 16 µg/mL (≈ 1.75 to 27.9 µM)
MIC [2, 4]: < 1 µg/mL

CNCC1=CC[C@@H](NC(=N)N)[C@@H](O[C@H]2[C@H](O)[C@@H](O[C@H]3OC[C@](C)(O)[C@H](NC)[C@H]3O)[C@H](N)C[C@@H]2N)O1 [Example 108, 6′-Methyl-2′-guanidinium-sisomicin]
MIC [1, 3]: < 1 µg/mL
MIC [2, 4]: 1 to 16 µg/mL (≈ 1.99 to 31.8 µM)

From US20120214760A1, “TREATMENT OF URINARY TRACT INFECTIONS WITH ANTIBACTERIAL AMINOGLYCOSIDE COMPOUNDS” (Achaogen, Inc., priority 2009, published 2012)
